Data from PubChem BioAssay (NCI).
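Results reflect a 48-hour exposure of cells in 96-well plates to compound at five concentrations. TGI marks complete inhibition of growth.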

How the values were obtained:
Assay in all cases: NCI tumour cell line growth inhibition, 48 h
HCT-15 colon = tested on: HCT-15 colon
SW-620 colon = tested on: SW-620 colon
COLO 205 colon = tested on: COLO 205 colon
HOP-18 NSCLC = tested on: HOP-18 NSCLC
NCI-H23 lung = tested on: NCI-H23 lung
HOP-62 NSCLC = tested on: HOP-62 NSCLC
RXF 393 renal = tested on: RXF 393 renal
P388/ADR leukemia = tested on: P388/ADR leukemia
NCI-H522 lung = tested on: NCI-H522 lung
CCRF-CEM leukemia = tested on: CCRF-CEM leukemia
UACC-257 melanoma = tested on: UACC-257 melanoma
A549 NSCLC = tested on: A549 NSCLC
KM20L2 colon = tested on: KM20L2 colon
LOX IMVI melanoma = tested on: LOX IMVI melanoma
HOP-92 NSCLC = tested on: HOP-92 NSCLC
SF-539 CNS = tested on: SF-539 CNS
SK-MEL-2 melanoma = tested on: SK-MEL-2 melanoma
SF-268 CNS = tested on: SF-268 CNS
BT-549 breast = tested on: BT-549 breast
OVCAR-4 ovarian = tested on: OVCAR-4 ovarian
SK-MEL-5 melanoma = tested on: SK-MEL-5 melanoma
DMS 114 small cell lung = tested on: DMS 114 small cell lung
RXF-631 renal = tested on: RXF-631 renal
P388 leukemia = tested on: P388 leukemia
NCI-H226 lung = tested on: NCI-H226 lung
DU-145 prostate = tested on: DU-145 prostate
PC-3 prostate = tested on: PC-3 prostate
HL-60(TB) leukemia = tested on: HL-60(TB) leukemia
SN12K1 renal = tested on: SN12K1 renal
U251 CNS = tested on: U251 CNS
NCI-H460 lung = tested on: NCI-H460 lung
MALME-3M melanoma = tested on: MALME-3M melanoma
MOLT-4 leukemia = tested on: MOLT-4 leukemia
NCI/ADR-RES ovarian = tested on: NCI/ADR-RES ovarian
CAKI-1 renal = tested on: CAKI-1 renal
SF-295 CNS = tested on: SF-295 CNS
SN12C renal = tested on: SN12C renal
HCT-116 colon = tested on: HCT-116 colon
UO-31 renal = tested on: UO-31 renal
RPMI-8226 leukemia = tested on: RPMI-8226 leukemia
KM12 colon = tested on: KM12 colon
M19-MEL melanoma = tested on: M19-MEL melanoma
DLD-1 colon = tested on: DLD-1 colon
K-562 leukemia = tested on: K-562 leukemia
XF 498 CNS = tested on: XF 498 CNS
OVCAR-3 ovarian = tested on: OVCAR-3 ovarian
OVCAR-8 ovarian = tested on: OVCAR-8 ovarian
786-0 renal = tested on: 786-0 renal
SK-OV-3 ovarian = tested on: SK-OV-3 ovarian
MDA-MB-231 breast = tested on: MDA-MB-231 breast
MCF7 breast = tested on: MCF7 breast
HCC-2998 colon = tested on: HCC-2998 colon
OVCAR-5 ovarian = tested on: OVCAR-5 ovarian
M14 melanoma = tested on: M14 melanoma
EKVX NSCLC = tested on: EKVX NSCLC
HT29 colon = tested on: HT29 colon
SNB-78 CNS = tested on: SNB-78 CNS
SNB-75 CNS = tested on: SNB-75 CNS
SNB-19 CNS = tested on: SNB-19 CNS
A498 renal = tested on: A498 renal
SK-MEL-28 melanoma = tested on: SK-MEL-28 melanoma
LXFL 529 NSCLC = tested on: LXFL 529 NSCLC
TK-10 renal = tested on: TK-10 renal
IGROV1 ovarian = tested on: IGROV1 ovarian
DMS 273 small cell lung = tested on: DMS 273 small cell lung
UACC-62 melanoma = tested on: UACC-62 melanoma
ACHN renal = tested on: ACHN renal
SR leukemia = tested on: SR leukemia

COc1cc(C2c3cc4c(cc3[C@@H](Nc3ccc5c(c3)OCCO5)C3COC(=O)[C@H]23)OCO4)cc(OC)c1O (stereo not given in full)
TGI (HCT-15 colon): 7.23 µM
TGI (SW-620 colon): > 79.1 µM
TGI (COLO 205 colon): 4.43 µM
TGI (HOP-18 NSCLC): > 100 µM
TGI (NCI-H23 lung): 2.79 µM
TGI (HOP-62 NSCLC): 1.31 µM
TGI (RXF 393 renal): 4.64 µM
TGI (P388/ADR leukemia): 1.25 µM
TGI (NCI-H522 lung): 5.43 µM
TGI (CCRF-CEM leukemia): 2.28 µM
TGI (UACC-257 melanoma): > 32.3 µM
TGI (A549 NSCLC): 7.15 µM
TGI (KM20L2 colon): 9.05 µM
TGI (LOX IMVI melanoma): 22.4 µM
TGI (HOP-92 NSCLC): 4.64 µM
TGI (SF-539 CNS): 5.07 µM
TGI (SK-MEL-2 melanoma): 12 µM
TGI (SF-268 CNS): 23.1 µM
TGI (BT-549 breast): 16.4 µM
TGI (OVCAR-4 ovarian): 29.3 µM
TGI (SK-MEL-5 melanoma): 1.75 µM
TGI (DMS 114 small cell lung): 3.42 µM
TGI (RXF-631 renal): 3.51 µM
TGI (P388 leukemia): 1.26 µM
TGI (NCI-H226 lung): 1.94 µM
TGI (DU-145 prostate): > 100 µM
TGI (PC-3 prostate): > 100 µM
TGI (HL-60(TB) leukemia): 0.241 µM
TGI (SN12K1 renal): 9.19 µM
TGI (U251 CNS): 8.26 µM
TGI (NCI-H460 lung): 2.23 µM
TGI (MALME-3M melanoma): 26.4 µM
TGI (MOLT-4 leukemia): 1.02 µM
TGI (NCI/ADR-RES ovarian): > 100 µM
TGI (CAKI-1 renal): 2.42 µM
TGI (SF-295 CNS): 4.25 µM
TGI (SN12C renal): 10.2 µM
TGI (HCT-116 colon): 8 µM
TGI (UO-31 renal): 12.9 µM
TGI (RPMI-8226 leukemia): 8.42 µM
TGI (KM12 colon): 10.9 µM
TGI (M19-MEL melanoma): > 35.9 µM
TGI (DLD-1 colon): 5.17 µM
TGI (K-562 leukemia): 16.4 µM
TGI (XF 498 CNS): 5.89 µM
TGI (OVCAR-3 ovarian): 7.1 µM
TGI (OVCAR-8 ovarian): 25.6 µM
TGI (786-0 renal): 3.11 µM
TGI (SK-OV-3 ovarian): 8.7 µM
TGI (MDA-MB-231 breast): > 100 µM
TGI (MCF7 breast): > 100 µM
TGI (HCC-2998 colon): 3.65 µM
TGI (OVCAR-5 ovarian): 16.6 µM
TGI (M14 melanoma): 5.08 µM
TGI (EKVX NSCLC): 17 µM
TGI (HT29 colon): 5.96 µM
TGI (SNB-78 CNS): > 34.2 µM
TGI (SNB-75 CNS): 5.59 µM
TGI (SNB-19 CNS): 66.6 µM
TGI (A498 renal): 1.42 µM
TGI (SK-MEL-28 melanoma): > 47.6 µM
TGI (LXFL 529 NSCLC): > 100 µM
TGI (TK-10 renal): 11.6 µM
TGI (IGROV1 ovarian): 16.6 µM
TGI (DMS 273 small cell lung): 1.87 µM
TGI (UACC-62 melanoma): 7.19 µM

CC1(O)CCn2c(=O)c3cc4ccccc4cc3c(=O)n2C1O (stereo not given)
TGI (HCT-15 colon): > 100 µM
TGI (SW-620 colon): > 100 µM
TGI (COLO 205 colon): > 100 µM
TGI (HOP-18 NSCLC): > 100 µM
TGI (NCI-H23 lung): > 100 µM
TGI (HOP-62 NSCLC): > 100 µM
TGI (RXF 393 renal): > 100 µM
TGI (NCI-H522 lung): 50.7 µM
TGI (CCRF-CEM leukemia): > 100 µM
TGI (ACHN renal): > 100 µM
TGI (UACC-257 melanoma): > 100 µM
TGI (A549 NSCLC): > 100 µM
TGI (KM20L2 colon): > 100 µM
TGI (LOX IMVI melanoma): > 100 µM
TGI (HOP-92 NSCLC): > 100 µM
TGI (SF-539 CNS): > 100 µM
TGI (SK-MEL-2 melanoma): > 100 µM
TGI (SF-268 CNS): > 100 µM
TGI (SK-MEL-5 melanoma): > 100 µM
TGI (DMS 114 small cell lung): > 100 µM
TGI (RXF-631 renal): > 100 µM
TGI (NCI-H226 lung): > 100 µM
TGI (HL-60(TB) leukemia): > 100 µM
TGI (SR leukemia): > 100 µM
TGI (U251 CNS): > 100 µM
TGI (NCI-H460 lung): > 100 µM
TGI (MALME-3M melanoma): > 100 µM
TGI (MOLT-4 leukemia): > 100 µM
TGI (CAKI-1 renal): > 100 µM
TGI (SF-295 CNS): > 100 µM
TGI (SN12C renal): > 100 µM
TGI (HCT-116 colon): > 100 µM
TGI (RPMI-8226 leukemia): > 100 µM
TGI (KM12 colon): > 100 µM
TGI (M19-MEL melanoma): > 100 µM
TGI (DLD-1 colon): > 100 µM
TGI (K-562 leukemia): > 100 µM
TGI (OVCAR-3 ovarian): > 100 µM
TGI (OVCAR-8 ovarian): > 100 µM
TGI (786-0 renal): > 100 µM
TGI (SK-OV-3 ovarian): > 100 µM
TGI (HCC-2998 colon): > 100 µM
TGI (OVCAR-5 ovarian): > 100 µM
TGI (EKVX NSCLC): > 100 µM
TGI (HT29 colon): > 100 µM
TGI (SNB-19 CNS): > 100 µM
TGI (SK-MEL-28 melanoma): > 100 µM
TGI (LXFL 529 NSCLC): > 100 µM
TGI (TK-10 renal): > 100 µM
TGI (IGROV1 ovarian): > 100 µM
TGI (DMS 273 small cell lung): > 100 µM
TGI (UACC-62 melanoma): > 100 µM

CC(C)(C)OC(=O)NC1CCCC1=O (stereo not given)
TGI (SW-620 colon): > 100 µM
TGI (NCI-H23 lung): > 100 µM
TGI (HOP-62 NSCLC): > 100 µM
TGI (RXF 393 renal): > 100 µM
TGI (NCI-H522 lung): > 100 µM
TGI (CCRF-CEM leukemia): > 100 µM
TGI (ACHN renal): > 100 µM
TGI (UACC-257 melanoma): > 100 µM
TGI (A549 NSCLC): > 100 µM
TGI (KM20L2 colon): > 100 µM
TGI (LOX IMVI melanoma): > 100 µM
TGI (HOP-92 NSCLC): > 100 µM
TGI (SF-539 CNS): > 100 µM
TGI (SK-MEL-2 melanoma): > 100 µM
TGI (SF-268 CNS): > 100 µM
TGI (OVCAR-4 ovarian): > 100 µM
TGI (SK-MEL-5 melanoma): > 100 µM
TGI (RXF-631 renal): > 100 µM
TGI (NCI-H226 lung): > 100 µM
TGI (SR leukemia): > 100 µM
TGI (U251 CNS): > 100 µM
TGI (NCI-H460 lung): > 100 µM
TGI (MALME-3M melanoma): > 100 µM
TGI (MOLT-4 leukemia): > 100 µM
TGI (CAKI-1 renal): > 100 µM
TGI (SF-295 CNS): > 100 µM
TGI (SN12C renal): > 100 µM
TGI (HCT-116 colon): > 100 µM
TGI (UO-31 renal): > 100 µM
TGI (KM12 colon): > 100 µM
TGI (M19-MEL melanoma): > 100 µM
TGI (DLD-1 colon): > 100 µM
TGI (K-562 leukemia): > 100 µM
TGI (XF 498 CNS): > 100 µM
TGI (OVCAR-3 ovarian): > 100 µM
TGI (OVCAR-8 ovarian): > 100 µM
TGI (786-0 renal): > 100 µM
TGI (SK-OV-3 ovarian): > 100 µM
TGI (HCC-2998 colon): > 100 µM
TGI (OVCAR-5 ovarian): > 100 µM
TGI (M14 melanoma): > 100 µM
TGI (EKVX NSCLC): > 100 µM
TGI (HT29 colon): > 100 µM
TGI (SNB-78 CNS): > 100 µM
TGI (SNB-75 CNS): > 100 µM
TGI (SNB-19 CNS): > 100 µM
TGI (A498 renal): > 100 µM
TGI (SK-MEL-28 melanoma): > 100 µM
TGI (LXFL 529 NSCLC): > 100 µM
TGI (TK-10 renal): > 100 µM
TGI (DMS 273 small cell lung): > 100 µM
TGI (UACC-62 melanoma): > 100 µM
